Laboratory results published in article PMC12320299 (Chemical Science, 2025).

What was measured:
[1] = Tissue and plasma proteome profiling of 1a-treated CT26-bearing mice; assay type: in vivo, BALB/c mice; settings: 10 mg kg^−1, five days
Excerpt: On day five, tumour, liver and blood were harvested two hours after the last injection of 1a. Blood plasma and livers were harvested to obtain insight into systemic drug effects and tumours were collected to obtain information about local effects of the candidate drug.
For proteomic workup, the fresh tissue samples were quickly rinsed with PBS and shock-frozen in liquid nitrogen. Blood plasma was immediately prepared by centrifugation of the collected blood in ethylenediaminetetraacetic acid (EDTA) tubes. The samples were analysed in technical duplicates due to the expected larger heterogeneity and statistical evaluation was performed using the LIMMA algorithm[73] and gene set variation analysis (GSVA).[74] […] Statistical significance was calculated based on multi-parameter testing-adjusted P-values […].
Animals. All experiments were carried out with male Balb/c mice according to the regulation of the Ethics Committee for the Care and Use of Laboratory Animals at the Medical University Vienna (BMWF-2022-0.770.291), the guidelines from the Austrian Animal Science Association and the Federation of European Laboratory Animal Science Associations (FELASA). The animals were kept in a pathogen-free conditions, controlled environment with 12 h light–dark cycle with ad libitum access to food and water. Every procedure was done in a laminar airflow […]
Treatment. CT-26 cells ([…] in 50 μL serum-free medium) were injected subcutaneously (s.c.) into the right flank of ten– to eleven-week-old male Balb/c mice. Three days after cell injection, all compounds (dissolved in 10% DMSO in water) were administered […]
In case of the proteomic profiling […]
in water for 5 consecutive days. On the last day, 2 h after the last treatment, mice were euthanized, and blood was collected in an EDTA tube via heart punctation. Tumours and livers were harvested, quickly rinsed with PBS and snap-frozen in liquid nitrogen. Blood plasma was obtained by centrifugation (2×10 min at 900 g). […]
Sample Processing. All steps were performed on ice. The frozen tissue samples (weights ranging from 8.6– 51.5 mg) were transferred to 15 mL Falcon tubes containing 150 µL sodium deoxycholate lysis buffer (SDC; 0.4 g SDC, 500 μL Tris∙HCl (pH 8.8) in 9.5 mL H2O) and homogenized with a sonication probe (Bandelin Sonoplus HD 2070; Bandelin Electronic GmbH & Co. KG, Berlin, Germany). After sonication the homogenates were centrifuged at 10.000 g for 5 minutes and the resulting supernatant was transferred to new reaction tubes. […]
EDTA-anticoagulated plasma samples were diluted in SDC buffer at a ratio of 1 : 20, heated at 95 °C for 5 min and stored at –20 °C. The protein concentration of each sample was determined using a BCA assay. […]

[2] = test system: p21; experiment: p21 expression, immunofluorescence, CT26; assay type: cell-based, murine; settings: 24 h, 1 μM
Procedure: (§1) Cell Signaling Technology (Danvers, MA, USA), respectively. Horseradish-peroxidase-linked secondary antibodies, anti-mouse IgG (Fc specific) antibody (#7076S) and anti-rabbit IgG antibody (#7074S) were purchased from Cell Signaling Technology (Danvers, MA, USA). Anti-ß-actin (AC-15) (A5441, 1:2000) was obtained from Sigma-Aldrich (St. Louis, MO, USA).
(§2) SW480 and CT26 cells were grown at a density of 6.7x10^4 cells/mL on 8-well glass coverslips (80841, ibidi GmbH, Gräfelfing, Germany) in 300 µL complete media. The next day, cells were treated with respective compounds for 24 h. Cells were fixed with 4%(v/v) paraformaldehyde for 15 min at RT, followed by washing, blocking and permeabilization with 5%(w/v) BSA and […]
(§3) (1 : 500) were diluted in 1% BSA-0.3% Triton-X-100 in PBS and incubated overnight at 4 °C.
(§4) One well was incubated without primary antibody as background control. Cells were washed and stained with secondary goat anti-mouse AlexaFlour-488 (1 : 500 dilution, A-11029, Thermo Fisher Scientific) or goat anti-rabbit AlexaFlour-488 (1 : 500 dilution, A-11034, Thermo Fisher Scientific) antibodies for 1 h at RT. Following, cells were stained with 0.2% Wheat Germ Agglutinin (WGA)-Rhodamine (RL-1022, Vector Laboratories, Inc.) and 0.1% DAPI (62248, Thermo Fisher Scientific) for staining of plasma membrane and nuclei, respectively, according to manufacturer’s recommendations. […]

[3] = test system: TP53; experiment: Immunofluorescence staining of TP53; assay type: cell-based, human; settings: SW480, 24 h; 1a 1 μM; etoposide 100 nM
Procedure: as §1, §2, §3, §4

CCC1=C2[O][Ru][O]C2(n2cccn2)c2ccccc2C1=O.Cc1ccc(C(C)C)cc1 (stereo not drawn) [Compound 1a, [(3-ethyl-4-oxo-(pyrazolyl)-dihydronaphthalene)(cymene)ruthenium(II)]]
EGFR level in tumour [1]: down-regulated
statistically significant regulations, plasma ([1]; of 285 identified): 79
statistically significantly regulated proteins, liver ([1]; of 2770 identified): 14
statistically significant regulations, tumour ([1]; of 3867 identified): 5
p21 expression, CT26 [2]: significantly reduced p21 expression
TP53 immunofluorescence signal [3]: decisive loss of TP53 signal intensity
